Measurements reported in patent US7507540B1, “Catalytic anti-factor VIII allo-antibodies” (Institut National de la Sante et de la Recherche Medicale …, priority 1999, dated 2009).
Non-standard residues stand in square brackets, D forms with d. Residues, ends and D or L forms follow the SMILES beside them. *: point of attachment. Sta = CC(C)C[C@H](N)[C@@H](O)CC(=O)O; Isovaleryl = CC(C)CC(=O)*

Tested on: proteolytic activity of anti-Factor VIII IgG
Test: Inhibition of anti-Factor VIII IgG-catalysed hydrolysis of [125I]-Factor VIII
Format: biochemical, human
Conditions: for inhibition of proteolytic activity of anti-Factor VIII IgG: IgG of patients Bor and Wal
Procedure: Commercial human recombinant Factor VIII was labelled with ^125I to a specific activity of 11.6 nCi/μg, by using the iodogen method. [^125I]-Factor VIII (1.5 to 150 ng) was incubated in 50 μl of 50 mM tris-HCI pH 7.7, 100 mM glycine, 0.025% Tween-20 and 0.02% NaN3 alone or with 17 to 1667 nM of immuno-purified anti-Factor VIII IgG for 5 min to 10 hours at 38° C. Human monoclonal anti-digoxin IgG M061 (mAb) and normal unfractionated human polyclonal IgG (IVIg, Sandoglobulin®), were used as negative controls. Samples were mixed 1:1 with Laemmli's buffer without mercaptoethanol, and were subjected to SDS electrophoresis without boiling,. Samples were run in parallel on 7.5% and 15% SDS-PAGE under non-reducing conditions, after loading 20 μl of each sample per lane. Migration was performed at room temperature using a mini-PROTEAN II system at 25 mA/gel, until the dye front reached the bottom of the gel. […] Following autoradiography, the Factor VIII bands of apparent molecular weight 200 and 300 kDa that are consistently hydrolysed by anti-Factor VIII IgG, were scanned so as to allow for the calculation of the rate of hydrolysis of labelled Factor VIII.
Hydrolysis of [^125I]-Factor VIII by affinity-purified anti-Factor VIII IgG antibodies of haemophilia A patients with inhibitor in the presence of Pefabloc®. [^125I]-Factor VIII (150 ng) was incubated alone, with 50 μg/ml of immunopurified anti-Factor VIII IgG of patient Wal or in the presence of both anti-Factor VIII IgG and 4 mM of the serine protease inhibitor Pefabloc® (Boehringer) for 5 h at 38° C. Factor VIII was then analysed by 7.5% SDS-PAGE under non-reducing conditions. Following autoradiography, the Factor VIII bands of apparent molecular weight 200 and 300 kDa that are consistently hydrolysed by anti-FVIII IgG, were scanned so as to allow for the calculation of the % of hydrolysis of labelled […].

**Q.** With `CC(C)C[C@H](NC(=O)[C@H]1O[C@@H]1C(=O)O)C(=O)NCCCCN=C(N)N` [E-64] as the compound, how does the “inhibition of proteolytic activity of anti-Factor VIII IgG” value (“inhibition … of anti-Factor VIII IgG” below) (E-64 28 μM) read?
**A.** did not result in inhibition of proteolytic activity

**Q.** How did the “inhibition … of anti-Factor VIII IgG” value (EDTA 1.3 μM) turn out when `O=C(O)CN(CCN(CC(=O)O)CC(=O)O)CC(=O)O` [EDTA] was run?
**A.** did not result in inhibition of proteolytic activity

**Q.** With `Cl.NCCc1ccc(S(=O)(=O)F)cc1` [Pefabloc, 4-(2-aminoethyl)benzenesulphonyl fluoride hydrochloride] as the compound, how does the “inhibition of proteolysis of radio-labelled Factor VIII by anti-Factor VIII allo-antibodies of patient Wal” value (4 mM Pefabloc, 50 μg/ml IgG of patient Wal, 5 h at 38° C.) read?
**A.** about 62%

**Q.** For `CC(=O)N[C@@H](CC(C)C)C(=O)N[C@@H](CC(C)C)C(=O)N[C@H](C=O)CCCNC(=N)N` [leupeptin], which “inhibition … of anti-Factor VIII IgG” value (leupeptin 10 μM) is on record?
**A.** did not result in inhibition of proteolytic activity

**Q.** `CC(C)CC(=O)N[C@H](C(=O)N[C@H](C(=O)N[C@@H](CC(C)C)[C@@H](O)CC(=O)N[C@@H](C)C(=O)N[C@@H](CC(C)C)[C@@H](O)CC(=O)O)C(C)C)C(C)C` [pepstatin] (Isovaleryl-VV[Sta]A[Sta]-OH) was tested. Which “inhibition … of anti-Factor VIII IgG” value (pepstatin 10 μM) did it give?
**A.** did not result in inhibition of proteolytic activity

**Q.** For aprotinin, which “inhibition … of anti-Factor VIII IgG” value (aprotinin 0.15 μM) is on record?
**A.** did not result in inhibition of proteolytic activity

**Q.** With vWF: purified von Willebrand Factor as the compound, how does the “partial inhibition of hydrolysis of Factor VIII by anti-Factor VIII IgG” value (30 μg/ml of vWF versus 300 ng/ml of Factor VIII) read?
**A.** 36.9%
